# Data from patent US20030153590A1, “Method of treating alcoholism or alcohol abuse” (OY CONTRAL PHARMA LTD, priority 2001, published 2003).
# How the values were obtained:
# [1] = cited from earlier work
# [2] = system: subjects with impaired control of alcohol drinking; assay: Randomized, double-blind, placebo-controlled dose-response study of nalmefene once daily for 16 weeks; format: in vivo, human; details: for Spouse or significant other estimate of frequency of intoxication: At least once a week (number of subjects) / Spouse or significant other estimate of frequency of intoxication: At least once a week (share of subjects) / Spouse or significant other estimate of frequency of intoxication: Every day (number of subjects) / Spouse or significant other estimate of frequency of intoxication: Every day (share of subjects) / Spouse or significant other estimate of frequency of intoxication: Never (number of subjects) / Spouse or significant other estimate of frequency of intoxication: Never (share of subjects) / Spouse or significant other estimate of frequency of intoxication: Once or twice (number of subjects) / Spouse or significant other estimate of frequency of intoxication: Once or twice (share of subjects) / Spouse or significant other estimate of frequency of intoxication: Several times a month (number of subjects) / Spouse or significant other estimate of frequency of intoxication: Several times a month (share of subjects): week 16
# Procedure: A randomized, double-blind, placebo-controlled, multicenter, parallel group, dose-response study was conducted comparing placebo and two doses of nalmefene.
# The subjects were randomly allocated to receive placebo, 10 mg of nalmefene or 40 mg of nalmefene once daily for 16 weeks. […] During their participation in the study, the subjects were allowed to receive general counseling, but not any psychotherapy or other specific alcoholism treatment, including pharmacotherapy. The study consisted of a screening period (screening and inclusion visits) not exceeding 2 weeks, during which the eligibility of the study subjects were evaluated, and follow-up visits at 1, 3, 6, 9, 12, and 16 weeks after the study medication was started.
# The alcohol consumption was assessed with the Time Line Follow Back Method. The primary efficacy variable was the number of Heavy Drinking Days (HDDs) per month (defined as 28 days). A Heavy Drinking Day (HDD) was defined as a day when a male subject consumed 5 or more, or a female subject consumed 4 or more standard drinks. A standard drink contains approximately 12 g of ethanol. Secondary efficacy measures included other drinking variables (number of Drinking Days (DDs), ratio of HDDs to DDs, total consumption, and maximum and average intensity of drinking), Obsessive Compulsive Drinking Scale (OCDS), Alcohol Dependence Scale (ADS) and Drinkers Inventory of Consequences -scale (DrInC), clinical laboratory markers (ALAT, GGT, CDT, and MCV) and collateral reports.
# The monthly drinking of the subjects during the 12 weeks prior to the study was determined first to get a baseline. The total alcohol consumption was 25% higher in the FAH+ subject than in the FAH− subject. The number of HDDs and the number of DDs were at a similar level in all subgroups.
# The estimate on the subject's frequency of intoxication by subject's spouse or significant other was obtained again at the end of the study. Within the FAH+ subjects, there were more subjects in nalmefene 40 mg groups in categories “never” and “once or twice” than in other groups, and no subjects in the categories “at least once a week” or “every day”.
# [3] = In vitro permeation study, HCE cell membranes; details: human
# HCE cell membranes = assay: In vitro permeation study, HCE cell membranes; details: HCE, Papp × water solubility
# [4] = In vitro permeation study, MDCK cell membranes; format: in vitro ADME, canine; details: dog
# Procedure: (§1) MDCK cells were seeded onto the coated filters at a concentration of about 100,000 cells/cm^2. The culture medium was both in apical and basolateral chambers during the whole culture period, and the culture medium was changed every day. The cells were confluent within three days. […] The incubator environment was the same as described above.
# (§2) MDCK cells were used for the permeation study on the 4th day when the TER value was about 250 Ω×cm^2. HBSS (Gibco, Paisley, Skotlanti) /10 mM HEPES was used a buffer solution. The permeation study was performed as described above. All the permeation studies were performed at 37° C. using a horizontal plate mixer (Heidolph Inkubator 1000 and Titramax 1000; Heidolph Electro GmbH & Co., Kelheim, Germany). After the studies, TER was metered. The TER data were not changed during the permeability studies.
# (§3) The apparent permeability coefficients were calculated as:
# (§4) Papp=J/(C×S), (Equation 1)
# (§5) Cs is the water solubility of nalmefene.
# MDCK cell membranes = assay: In vitro permeation study, MDCK cell membranes; format: in vitro ADME, canine
# Procedure: as §1, §2, §3, §4, §5
compound,measurement,setting,value
C=C1CC[C@@]2(O)[C@H]3Cc4ccc(O)c5c4[C@@]2(CCN3CC2CC2)[C@H]1O5 [nalmefene],pKa,[1],7.63
same,number of HDDs,"[2]; FAH+ subjects, 10 mg once daily",smaller reduction in the early phase of the treatment
same,total alcohol consumption and number of HDDs,"[2]; FAH+ subjects, 10 mg, first month of treatment",positive tendency
same,Spouse or significant other estimate of frequency of intoxication: At least once a week (number of subjects),"[2]; FAH+ subjects, 10 mg",4
same,Spouse or significant other estimate of frequency of intoxication: At least once a week (share of subjects),"[2]; FAH+ subjects, 10 mg",21%
same,Spouse or significant other estimate of frequency of intoxication: Every day (number of subjects),"[2]; FAH+ subjects, 10 mg",0
same,Spouse or significant other estimate of frequency of intoxication: Every day (share of subjects),"[2]; FAH+ subjects, 10 mg",0%
same,Spouse or significant other estimate of frequency of intoxication: Never (number of subjects),"[2]; FAH+ subjects, 10 mg",1
same,Spouse or significant other estimate of frequency of intoxication: Never (share of subjects),"[2]; FAH+ subjects, 10 mg",5%
same,Spouse or significant other estimate of frequency of intoxication: Once or twice (number of subjects),"[2]; FAH+ subjects, 10 mg",6
same,Spouse or significant other estimate of frequency of intoxication: Once or twice (share of subjects),"[2]; FAH+ subjects, 10 mg",32%
same,Spouse or significant other estimate of frequency of intoxication: Several times a month (number of subjects),"[2]; FAH+ subjects, 10 mg",8
same,Spouse or significant other estimate of frequency of intoxication: Several times a month (share of subjects),"[2]; FAH+ subjects, 10 mg",42%
same,reduction of mean number of HDDs versus baseline,"[2]; FAH+ subjects, 40 mg daily oral, 4th month of treatment",about 60%
same,ratio of the number of HDDs to DDs,"[2]; FAH+ subjects, 40 mg daily, after treatment, baseline 85%",43%
same,number of DDs,"[2]; FAH+ subjects, 40 mg once daily",clear reduction
same,mean number of HDDs per month (28 days),"[2]; FAH+ subjects, 40 mg once daily oral, on treatment, baseline 14.5",6.0
same,mean number of drinks (monthly total alcohol consumption) as % of baseline,"[2]; FAH+ subjects, 40 mg, 4th month",about 40%
same,Spouse or significant other estimate of frequency of intoxication: At least once a week (number of subjects),"[2]; FAH+ subjects, 40 mg",0
same,Spouse or significant other estimate of frequency of intoxication: At least once a week (share of subjects),"[2]; FAH+ subjects, 40 mg",0%
same,Spouse or significant other estimate of frequency of intoxication: Every day (number of subjects),"[2]; FAH+ subjects, 40 mg",0
same,Spouse or significant other estimate of frequency of intoxication: Every day (share of subjects),"[2]; FAH+ subjects, 40 mg",0%
same,Spouse or significant other estimate of frequency of intoxication: Never (number of subjects),"[2]; FAH+ subjects, 40 mg",3
same,Spouse or significant other estimate of frequency of intoxication: Never (share of subjects),"[2]; FAH+ subjects, 40 mg",14%
same,Spouse or significant other estimate of frequency of intoxication: Once or twice (number of subjects),"[2]; FAH+ subjects, 40 mg",9
same,Spouse or significant other estimate of frequency of intoxication: Once or twice (share of subjects),"[2]; FAH+ subjects, 40 mg",41%
same,Spouse or significant other estimate of frequency of intoxication: Several times a month (number of subjects),"[2]; FAH+ subjects, 40 mg",14
same,Spouse or significant other estimate of frequency of intoxication: Several times a month (share of subjects),"[2]; FAH+ subjects, 40 mg",45%
same,mean number of heavy drinking days reduced by,"[2]; FAH+ subjects, daily oral 40 mg, fourth month of treatment (as worded)",40%
same,treatment effects on alcohol consumption versus placebo,[2]; FAH- subjects,not distinguishable from placebo
same,Spouse or significant other estimate of frequency of intoxication: At least once a week (number of subjects),"[2]; FAH- subjects, 10 mg",1
same,Spouse or significant other estimate of frequency of intoxication: At least once a week (share of subjects),"[2]; FAH- subjects, 10 mg",9%
same,Spouse or significant other estimate of frequency of intoxication: Every day (number of subjects),"[2]; FAH- subjects, 10 mg",1
same,Spouse or significant other estimate of frequency of intoxication: Every day (share of subjects),"[2]; FAH- subjects, 10 mg",9%
same,Spouse or significant other estimate of frequency of intoxication: Never (number of subjects),"[2]; FAH- subjects, 10 mg",1
same,Spouse or significant other estimate of frequency of intoxication: Never (share of subjects),"[2]; FAH- subjects, 10 mg",9%
same,Spouse or significant other estimate of frequency of intoxication: Once or twice (number of subjects),"[2]; FAH- subjects, 10 mg",4
same,Spouse or significant other estimate of frequency of intoxication: Once or twice (share of subjects),"[2]; FAH- subjects, 10 mg",36%
same,Spouse or significant other estimate of frequency of intoxication: Several times a month (number of subjects),"[2]; FAH- subjects, 10 mg",4
same,Spouse or significant other estimate of frequency of intoxication: Several times a month (share of subjects),"[2]; FAH- subjects, 10 mg",36%
same,Spouse or significant other estimate of frequency of intoxication: At least once a week (number of subjects),"[2]; FAH- subjects, 40 mg",1
same,Spouse or significant other estimate of frequency of intoxication: At least once a week (share of subjects),"[2]; FAH- subjects, 40 mg",8%
same,Spouse or significant other estimate of frequency of intoxication: Every day (number of subjects),"[2]; FAH- subjects, 40 mg",1
same,Spouse or significant other estimate of frequency of intoxication: Every day (share of subjects),"[2]; FAH- subjects, 40 mg",8%
same,Spouse or significant other estimate of frequency of intoxication: Never (number of subjects),"[2]; FAH- subjects, 40 mg",2
same,Spouse or significant other estimate of frequency of intoxication: Never (share of subjects),"[2]; FAH- subjects, 40 mg",15%
same,Spouse or significant other estimate of frequency of intoxication: Once or twice (number of subjects),"[2]; FAH- subjects, 40 mg",3
same,Spouse or significant other estimate of frequency of intoxication: Once or twice (share of subjects),"[2]; FAH- subjects, 40 mg",23%
same,Spouse or significant other estimate of frequency of intoxication: Several times a month (number of subjects),"[2]; FAH- subjects, 40 mg",5
same,Spouse or significant other estimate of frequency of intoxication: Several times a month (share of subjects),"[2]; FAH- subjects, 40 mg",38%
same,number of HDDs,"[2]; FAH- subjects, nalmefene 10 mg or 40 mg once daily",no clear treatment effects
same,mean number of drinks (monthly total alcohol consumption),"[2]; FAH- subjects, throughout the study",remained almost unchanged
same,"Papp A→B at 180 min, 500 μM",[3]; pH 6.5,7.86 ± 0.29 ×10⁻⁶ cm/s
same,"Papp A→B at 180 min, 500 μM",[3]; pH 7,12.1 ± 0.79 ×10⁻⁶ cm/s
same,"Papp A→B at 180 min, 500 μM",[3]; pH 7.5,13.3 ± 0.61 ×10⁻⁶ cm/s
same,"Papp A→B at 180 min, 500 μM",[3]; pH 8,13.6 ± 1.64 ×10⁻⁶ cm/s
same,Maximal administration rate Jmax × 10^−6 ± SD,"HCE cell membranes; pH 6.5, n = 4",879 ± 32 × 10^−6 mg/(cm^2 s)
same,Maximal administration rate Jmax × 10^−6 ± SD,"HCE cell membranes; pH 7.0, n = 4",1072 ± 70 × 10^−6 mg/(cm^2 s)
same,Maximal administration rate Jmax × 10^−6 ± SD,"HCE cell membranes; pH 7.5, n = 4",423 ± 19 × 10^−6 mg/(cm^2 s)
same,Maximal administration rate Jmax × 10^−6 ± SD,"HCE cell membranes; pH 8.0, n = 4",6.0 ± 0.7 × 10^−6 mg/(cm^2 s)
same,"Papp A→B at 180 min, 500 μM","[4]; pH 6.5, n = 4, read-out: Permeability factor (Papp ± SD)",11.4 ± 0.59 ×10⁻⁶ cm/s
same,"Papp A→B at 180 min, 500 μM","[4]; pH 7.0, n = 4, read-out: Permeability factor (Papp ± SD)",18.27 ± 0.16 ×10⁻⁶ cm/s
same,"Papp A→B at 180 min, 500 μM","[4]; pH 7.5, n = 4, read-out: Permeability factor (Papp ± SD)",22.7 ± 1.08 ×10⁻⁶ cm/s
same,"Papp A→B at 180 min, 500 μM","[4]; pH 8.0, n = 4, read-out: Permeability factor (Papp ± SD)",23.9 ± 2.49 ×10⁻⁶ cm/s
same,Maximal administration rate Jmax × 10^−6 ± SD,"MDCK cell membranes; pH 6.5, n = 4, Papp × water solubility",1273 ± 66 × 10^−6 mg/(cm^2 s)
same,Maximal administration rate Jmax × 10^−6 ± SD,"MDCK cell membranes; pH 7.0, n = 4, Papp × water solubility",1618 ± 14 × 10^−6 mg/(cm^2 s)
same,Maximal administration rate Jmax × 10^−6 ± SD,"MDCK cell membranes; pH 7.5, n = 4, Papp × water solubility",723 ± 34 × 10^−6 mg/(cm^2 s)
same,Maximal administration rate Jmax × 10^−6 ± SD,"MDCK cell membranes; pH 8.0, n = 4, Papp × water solubility",10.6 ± 1.1 × 10^−6 mg/(cm^2 s)
